What was measured:
[1] = system: uPA protein; assay: uPA protein level in plasma of mice bearing PC3 xenograft tumors (ELISA); format: in vivo, nu/nu athymic mice; conditions: 30 mg/kg orally twice a day; following first week of treatment
Procedure: FIG. 5. […] Xenograft tumors were established subcutaneously in nu/nu athymic mice. The mice were divided into three groups each with 8 mice after tumors had reached approximately 200 mg. […] Dasatinib was administered orally twice a day on a 5-day-on 2-day-off schedule for 20 doses. The tumor size measurement and blood sampling were performed prior to treatment and weekly for two weeks after treatment initiation. […] Experiments were performed as described in Example 2.
The mice were divided into three groups each with 8 mice after tumors had reached approximately 200 mg. […] Dasatinib was administered orally twice a day on a 5-day-on 2-day-off schedule for 20 doses. The tumor size measurement and blood sampling were performed prior to treatment and weekly for two weeks after treatment initiation. Tumor weight was determined using the following equation: tumor weight=(length*width^2)/2.

[2] = system: DU145; assay: In vitro cell proliferation assay (MTS); format: cell-based, human; conditions: DU145 cells
Procedure: (§1) The IC50 for each cell line was assessed in by MTS assays as described in Example 1 (Methods). […] The IC50 unit is μM.
(§2) All cell lines were obtained from the American Type Culture Collection (Manassas, Va.), except DUCaP, which was obtained from Dr. Kenneth Pienta at University of Michigan. PWR1E and MDAPCa2b cells were grown in BRFF-HPC1 serum-free medium (AthenaES, Baltimore, Md.), and all other cells were cultured in RPMI 1640 supplemented with 10% fetal bovine serum, 100 IU/ml penicillin, and […] (Invitrogen, Carlsbad, Calif.). DUCaP cells were maintained in the presence of an immortalized mouse fibroblast cell line, which formed a layer beneath DUCaP cells that easily dislodged. Cells were incubated at 37° C. with circulation of 5% CO2.
(§3) The optimum number of cells to seed in 96-well plates to achieve linearity were determined in pilot experiments. Cells were plated at density of 2000-5000 cells/well into 96-well plates and cultured overnight. Cells were then treated with dasatinib at serially diluted concentrations. Three days later, MTS was added to the medium and quantified on a SPECTRAMAX® photometric plate reader (Molecular Devices, Sunnyvale, Calif.) at 490 nm. The results were plotted against drug concentrations and IC50s were calculated using Prism4 software (GraphPad, San Diego, Calif.). The IC50 was the concentration of dasatinib that would reduce cell proliferation by 50% compared to control. Minimum three independent assays were performed for each cell line. […] In the latter case, the concentration of dasatinib that was able to consistently reduce cell proliferation was used as IC50. […] Dasatinib stock, dissolved in DMSO, was 10 mg/ml.

[3] = system: PC3; assay: In vitro cell proliferation assay (MTS); format: cell-based, human; conditions: PC3 cells
Procedure: as §1, §2, §3

[4] = system: HPV10; assay: In vitro cell proliferation assay (MTS); format: cell-based, human; conditions: HPV10 cells
Procedure: as §1, §2, §3

[5] = system: LNCaP; assay: In vitro cell proliferation assay (MTS); format: cell-based, human; conditions: LNCaP cells
Procedure: as §1, §2, §3

[6] = system: DUCaP; assay: In vitro cell proliferation assay (MTS); format: cell-based, human; conditions: DUCaP cells
Procedure: as §1, §2, §3

[7] = system: HPV7; assay: In vitro cell proliferation assay (MTS); format: cell-based, human; conditions: HPV7 cells
Procedure: as §1, §2, §3

[8] = system: PWR1E; assay: In vitro cell proliferation assay (MTS); format: cell-based, human; conditions: PWR1E cells
Procedure: as §1, §2, §3

[9] = system: NB26; assay: In vitro cell proliferation assay (MTS); format: cell-based, human; conditions: NB26 cells
Procedure: as §1, §2, §3

[10] = system: WPMY1; assay: In vitro cell proliferation assay (MTS); format: cell-based, human; conditions: WPMY1 cells
Procedure: as §1, §2, §3

[11] = system: MDAPCa2b; assay: In vitro cell proliferation assay (MTS); format: cell-based, human; conditions: MDAPCa2b cells
Procedure: as §1, §2, §3

[12] = system: W99; assay: In vitro cell proliferation assay (MTS); format: cell-based, human; conditions: W99 cells
Procedure: as §1, §2, §3

[13] = system: 22Rvl; assay: In vitro cell proliferation assay (MTS); format: cell-based, human; conditions: 22Rvl cells
Procedure: as §1, §2, §3

[14] = system: RWPE1; assay: In vitro cell proliferation assay (MTS); format: cell-based, human; conditions: RWPE1 cells
Procedure: as §1, §2, §3

[15] = system: VCaP; assay: In vitro cell proliferation assay (MTS); format: cell-based, human; conditions: VCaP cells
Procedure: as §1, §2, §3

[16] = system: NB11; assay: In vitro cell proliferation assay (MTS); format: cell-based, human; conditions: NB11 cells
Procedure: as §1, §2, §3

[17] = Homo sapiens, 72 h, MTS, three days, read-out: mean IC50 (μM) to BMS-A
[18] = Homo sapiens, 72 h, MTS, three days, highly resistant: concentration that consistently reduced proliferation used as IC50, read-out: mean IC50 (μM) to BMS-A

Cc1nc(Nc2ncc(C(=O)Nc3c(C)cccc3Cl)s2)cc(N2CCN(CCO)CC2)n1 [BMS-A, N-(2-chloro-6-methylphenyl)-2-[[6-[4-(2-hydroxyethyl)-1-piperazinyl]-2-methyl-4-pyrimidinyl]amino]-5-thiazolecarboxamide]
reduction of plasma uPA level [1]: ~30%
Classification ([2]; based on IC50): Sensitive (The cell lines with an IC50 lower than 0.2 μm were defined as sensitive to the compound)
IC50 ([2]; Homo sapiens, DU-145, 72 h, MTS, three days, read-out: mean IC50 (μM) to BMS-A): 0.057 µM
IC50 ([3]; Homo sapiens, PC-3, 72 h, MTS, three days, read-out: mean IC50 (μM) to BMS-A): 0.051 µM
Classification ([3]; based on IC50): Sensitive (The cell lines with an IC50 lower than 0.2 μm were defined as sensitive to the compound)
Classification ([4]; based on IC50): Sensitive (The cell lines with an IC50 lower than 0.2 μm were defined as sensitive to the compound)
IC50 [4, 17]: 0.058 µM
IC50 [5, 17]: 0.068 µM
Classification ([5]; based on IC50): Sensitive (The cell lines with an IC50 lower than 0.2 μm were defined as sensitive to the compound)
Classification ([6]; based on IC50): Resistant (those having an IC50 above 0.2 μm were considered to be resistant)
IC50 [6, 18]: 2.5 µM
Classification ([7]; based on IC50): Sensitive (The cell lines with an IC50 lower than 0.2 μm were defined as sensitive to the compound)
IC50 [7, 17]: 0.127 µM
IC50 ([8]; Homo sapiens, PWR-1E, 72 h, MTS, three days, read-out: mean IC50 (μM) to BMS-A): 0.145 µM
Classification ([8]; based on IC50): Sensitive (The cell lines with an IC50 lower than 0.2 μm were defined as sensitive to the compound)
IC50 [9, 17]: 0.139 µM
Classification ([9]; based on IC50): Sensitive (The cell lines with an IC50 lower than 0.2 μm were defined as sensitive to the compound)
IC50 ([10]; Homo sapiens, WPMY-1, 72 h, MTS, three days, highly resistant: concentration that consistently reduced proliferation used as IC50, read-out: mean IC50 (μM) to BMS-A): 2.5 µM
Classification ([10]; based on IC50): Resistant (those having an IC50 above 0.2 μm were considered to be resistant)
IC50 ([11]; Homo sapiens, MDA-PCa-2b, 72 h, MTS, three days, highly resistant: concentration that consistently reduced proliferation used as IC50, read-out: mean IC50 (μM) to BMS-A): 2.5 µM
Classification ([11]; based on IC50): Resistant (those having an IC50 above 0.2 μm were considered to be resistant)
IC50 [12, 17]: 0.199 µM
Classification ([12]; based on IC50): Sensitive (The cell lines with an IC50 lower than 0.2 μm were defined as sensitive to the compound)
Classification ([13]; based on IC50): Resistant (those having an IC50 above 0.2 μm were considered to be resistant)
IC50 [13, 18]: 2 µM
IC50 ([14]; Homo sapiens, RWPE-1, 72 h, MTS, three days, read-out: mean IC50 (μM) to BMS-A): 0.12 µM
Classification ([14]; based on IC50): Sensitive (The cell lines with an IC50 lower than 0.2 μm were defined as sensitive to the compound)
IC50 [15, 18]: 2 µM
Classification ([15]; based on IC50): Resistant (those having an IC50 above 0.2 μm were considered to be resistant)
IC50 [16, 17]: 0.163 µM
Classification ([16]; based on IC50): Sensitive (The cell lines with an IC50 lower than 0.2 μm were defined as sensitive to the compound)
